Assay type in all cases: biochemical
Assay [1] concerns the target T1, hemoglobin (HbA1C formation) (Homo sapiens, UniProt P68871+P69905).
T1 construct: δ-Glu, an oxidized analogue of glucose, can react rapidly with hemoglobin within the red cells; from tissue; host or cells: fresh whole blood (red blood cells) from normal volunteers
In words: Hemoglobin-δ-Gluconolactone (δ-Glu) assay, early stage glycation. Particulars: 1 millimole/L inhibitor, δ-Glu treated whole blood, 16 hours at 37° C. The procedure:
The δ-Glu assay is a specific method for investigation of inhibitors of the early stage of glycation. Evaluation of early glycation products (Amadori) formation on hemoglobin (HbA1C) is performed by incubating red blood cells with an oxidized form of glucose in the presence and the absence of the inhibitor compound followed by determination of HbA1C in the test versus the control (Rahbar and Nadler., 1999). […] By contrast, glucose requires weeks for an equivalent reaction to occur. We have used this finding to devise an assay method to measure early stage glycation of hemoglobin (Amadori product) and an assay to evaluate the ability of an inhibitor to inhibit HbA1C formation. Briefly, fresh blood was drawn in potassium-EDTA and prepared for incubation within 30 minutes of collection by mixing 200 μL of blood with 40 μL of either phosphate buffered-saline (PBS), pH 7.4, alone, PBS containing 50 millimoles/L δ-Glu (Sigma), or PBS containing 50 millimoles/L δ-Glu plus 1 millimole/L inhibitor. After incubation for 16 hours at 37° C., the percentage of glycated hemoglobin present was determined. The percentage of glycated Hb (HbA1C) was determined using a dedicated ion-exchange HPLC system (BIORAD DIAMAT). Blood samples were analyzed in triplicate. The % inhibition of HbA1C formation by the compound was calculated according to the following formula: […]
where A is HbA1C concentration in the baseline control tube not treated with δ-Glu, B is the HbA1C concentration in blood incubated with δ-Glu, C is the HbA1C content of the test tube treated both with δ-Glu and the inhibitor compound.
The amount of (HbA1C) formation using δ-Glu treated whole blood from normal volunteers using 1 millimole/L of the compounds is shown in FIG. 1. Levels of HbA1C in the δ-Glu treated blood is twice as high as the baseline control. Various inhibitors (compounds LR93-LR102) show different levels of HbA1C depending on their inhibitory potencies.

Another assay has as its system G.K. peptide. In words: N-Acetyl-Glycyl-Lysine Methyl Ester (G.K. Peptide)-Ribose assay. The settings on record: 24 hours at 37° C., fluorescence 330/415 nm; for Percent Inhibition in the G.K.-Ribose Assay: 1 millimole/L inhibitor. Here is the method:
Evaluation of the late glycation products (AGEs), and AGE-inhibition by the new inhibitor compounds was tested by incubation of G.K. peptide in ribose in the presence or the absence of the agent, followed by determination of chromophores generated in the course of glycation and AGE formation through determination of their specific fluorescence. The Nagaraj et al. (1996) method used to evaluate the ability of the compounds of the present invention to inhibit the crosslinking of N-acetylglycyl-lysine methyl ester in the presence of ribose was as follows: Stock Solutions: 0.5 M sodium phosphate buffer pH 7.4 containing NaN3 0.2 g/L GK peptide (Sigma) 80 mg/mL in 0.5 M sodium phosphate buffer pH 7.4 Ribose 800 mM (120 mg/mL) in 0.5 M phosphate buffer Triplicate samples of equal volumes (0.1 mL) of the 3 stock solutions were mixed together, filtered through a 0.2 micron filter (Corning) and incubated under aseptic conditions for 24 hours at 37° C. The inhibitor compounds were added to a final concentration of 1 millimole/L. At the end of the incubation period, samples were analyzed for their specific fluorescence (excitation, 330 nm; emission, 415 nm). The % inhibition by different concentrations of inhibitor was calculated as described above. Aminoguanidine was used at 50 mM as a positive control. […] The results of this assay indicate that all ten compounds investigated here have strong inhibitory effects and block specific fluorescence of proteins AGE in these separate determinations.

In the next assay the target is T2, BSA (Bos taurus, UniProt P02769).
T2 construct: BSA (fraction V, essentially fatty acid free, low endotoxin) from Sigma; purchased Sigma
Put plainly: BSA-Glucose assay, glucose-mediated development of fluorescence of BSA. The settings on record: 7 days at 37° C., fluorescence 330/410 nm; for Percent Inhibition in the BSA-Glucose Assay: 1 millimole/L inhibitor. The procedure:
This test is used to evaluate the ability of the inhibitors to inhibit glucose-mediated development of fluorescence of BSA (Ikeda et al., 1996). Triplicate samples of BSA (fraction V, essentially fatty acid free, low endotoxin) from Sigma 50 mg/mL and 800 mM glucose (144 mg/mL) in […] phosphate buffer pH 7.4 containing NaN3 0.2 g/L was incubated under aseptic conditions at 37° C. for 7 days in the presence or absence of various concentrations of the compounds. After 7 days of incubation each sample was examined for the development of specific fluorescence (excitation, 330 nm; emission, 410 nm). The % inhibition of AGE formation in the test sample versus control was calculated for each inhibitor compound. Aminoguanidine (50 mM) was used as a positive control.
This assay method is mostly for the inhibitors of late glycation and AGE formation (post-Amadori). The results obtained by this assay show all ten compounds investigated here have strong inhibitory effects on post-Amadori glycation, AGE formation and AGE crosslinking.

Assay [2] has as its target T3, collagen-AGE-BSA crosslinking (Bos taurus, UniProt P02769).
T3 construct: purchased Becton Dickinson
Put plainly: ELISA assay, crosslinking of AGE-BSA to rat tail-tendon-collagen coated plate. Particulars: for Inhibition of AGE-protein crosslinking (in words): ELISA, FIGS. 4A-C, 0.1-0.5 mM; for Effectiveness relative to pyridoxamine, inhibition of AGE-protein-crosslinking: compared with pyridoxamine (Khalifah et al., 1999). Here is the method: A special ELISA technique (Al-abed et al., 1999) was used to evaluate the ability of the compounds being studied to inhibit the crosslinking of glycated-BSA (AGE-BSA) to a rat tail-tendon-collagen coated 96 well plate (Biocoat Cell Environment, Becton Dickinson). Crosslinking of AGE-BSA to a rat tail-tendon-collagen coated plate was performed with and without the testing compound at the desired concentrations. The uncross-linked AGE-BSA was then removed by washing the wells. The AGE-BSA crosslinked to the tail-tendon-collagen coated plate was then quantified by a polyclonal antibody raised against AGE-RNase in our laboratory. Positive results in the assay indicate that the inhibitor is capable of reducing the amount of AGE-BSA which crosslinks with collagen. Aminoguanidine was used as positive control.
On the technique in general: ELISA stands for enzyme-linked immunosorbent assay.

Results on nine compounds are retold here after patent US6605642B2, “Inhibitors of formation of advanced glycation endproducts (AGES)” (City of Hope, priority 1999, dated 2003).

T1 sequence (P68871 2-147 limits assumed): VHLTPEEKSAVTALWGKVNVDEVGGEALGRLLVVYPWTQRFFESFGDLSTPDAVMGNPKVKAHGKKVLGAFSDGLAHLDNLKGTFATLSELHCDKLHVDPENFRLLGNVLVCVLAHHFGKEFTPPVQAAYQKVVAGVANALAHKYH
T1 sequence (P69905 2-142 limits assumed): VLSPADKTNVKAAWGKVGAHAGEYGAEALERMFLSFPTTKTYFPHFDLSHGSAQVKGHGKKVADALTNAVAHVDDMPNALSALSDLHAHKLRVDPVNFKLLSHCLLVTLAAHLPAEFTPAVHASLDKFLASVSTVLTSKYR
T3 sequence (P02769 25-607): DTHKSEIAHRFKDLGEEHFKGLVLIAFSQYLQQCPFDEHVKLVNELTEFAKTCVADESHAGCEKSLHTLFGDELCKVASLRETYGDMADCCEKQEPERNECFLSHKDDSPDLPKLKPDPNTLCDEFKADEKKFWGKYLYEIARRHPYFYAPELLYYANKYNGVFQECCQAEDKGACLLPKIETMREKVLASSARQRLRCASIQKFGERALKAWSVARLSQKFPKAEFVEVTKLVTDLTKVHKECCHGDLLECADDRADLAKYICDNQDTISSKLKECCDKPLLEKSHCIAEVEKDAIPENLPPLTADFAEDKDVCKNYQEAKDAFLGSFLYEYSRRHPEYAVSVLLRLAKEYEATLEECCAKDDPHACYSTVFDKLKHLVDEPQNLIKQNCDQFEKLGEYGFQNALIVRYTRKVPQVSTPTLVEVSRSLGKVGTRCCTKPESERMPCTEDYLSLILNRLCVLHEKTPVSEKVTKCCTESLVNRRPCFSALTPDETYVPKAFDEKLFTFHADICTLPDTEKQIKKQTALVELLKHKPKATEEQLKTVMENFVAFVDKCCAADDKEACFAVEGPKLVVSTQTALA
T2 sequence (P02769 25-607): as above

As a reminder, the inhibition is the drop in the measured response relative to a control, in per cent. Take `N=C(N)NN` [AG, aminoguanidine, reference compound]: the “Percent Inhibition of HbA1c formation in the δ-Glu Assay” value (from here on “Percent Inhibition … in the δ-Glu Assay”) in assay [1] is listed as 12.1%. Moreover, the “Percent Inhibition in the G.K.-Ribose Assay (positive control)” value with G.K. peptide (aminoguanidine 50 mM) is reported as 67%. Besides, the inhibition at 50000 µM on BSA (aminoguanidine 50 mM, read-out: Percent Inhibition in the BSA-Glucose Assay (positive control)) was 74%.

Take `CC(C)(Oc1ccc(Cl)cc1)C(=O)NC1(C(=O)O)CCCCC1` [LR93]: the “Percent Inhibition … in the δ-Glu Assay” value in assay [1] came out at 49.2%. Moreover, the “Percent Inhibition in the G.K.-Ribose Assay” value with G.K. peptide was 42.8%. Also, the “Percent Inhibition in the BSA-Glucose Assay” value on BSA stood at 35%.

On to `CC(C)(Oc1ccc(NC(=O)Nc2cc(Cl)cc(Cl)c2)cc1)C(=O)N1CCCCC1C(=O)O` (stereo not shown) [LR94], for which the “Percent Inhibition … in the δ-Glu Assay” value in assay [1] is reported as 28.5%. Besides, in the assay with G.K. peptide, the “Percent Inhibition in the G.K.-Ribose Assay” value is on record as 33.7%. Further, the “Percent Inhibition in the BSA-Glucose Assay” value on BSA was found to be 26.8%.

On to `CC(C)C[C@H](NC(=O)C(C)(C)Oc1ccc(NC(=O)Nc2cc(Cl)cc(Cl)c2)cc1)C(=O)O` [LR95], for which the “Percent Inhibition … in the δ-Glu Assay” value in assay [1] is reported as 61.9%. The “Percent Inhibition in the G.K.-Ribose Assay” value in the assay with G.K. peptide was determined as 29.5%. Besides, the “Percent Inhibition in the BSA-Glucose Assay” value at BSA is given as 34%.

For the compound `COC(=O)CC[C@H](NC(=O)C(C)(C)Oc1ccc(NC(=O)Nc2cc(Cl)cc(Cl)c2)cc1)C(=O)O` [LR96], in assay [1], the “Percent Inhibition … in the δ-Glu Assay” value turned out to be 57.1%. Also, the “Percent Inhibition in the G.K.-Ribose Assay” value with G.K. peptide turned out to be 42.4%. Also, the “Percent Inhibition in the BSA-Glucose Assay” value on BSA was found to be 30%. Further, in assay [2], the “Inhibition of AGE-protein crosslinking (in words)” value is reported as “strong inhibitors of AGE-protein crosslinking” and the “Effectiveness relative to pyridoxamine, inhibition of AGE-protein-crosslinking” value was 2 to 3 times.

For `CC(C)(Oc1ccc(NC(=O)Nc2cc(Cl)cc(Cl)c2)cc1)C(=O)NCCCC(=O)O` [LR97], the “Percent Inhibition … in the δ-Glu Assay” value in assay [1] is given as 36.5%. The “Percent Inhibition in the G.K.-Ribose Assay” value in the assay with G.K. peptide is 33.3%. Also, at BSA, the “Percent Inhibition in the BSA-Glucose Assay” value is listed as 26.2%.

`CC(C)(Oc1ccc(NC(=O)Nc2cc(Cl)cc(Cl)c2)cc1)C(=O)NCC(=O)O` [LR98]: the “Percent Inhibition … in the δ-Glu Assay” value in assay [1] stood at 42.8%. Moreover, the “Percent Inhibition in the G.K.-Ribose Assay” value in the assay with G.K. peptide was 37.3%. The “Percent Inhibition in the BSA-Glucose Assay” value at BSA came out at 26.7%.

Turning to `CC(C)(Oc1ccc(NC(=O)Nc2cc(Cl)cc(Cl)c2)cc1)C(=O)Nc1ccc(C(=O)O)cc1` [LR99], the “Percent Inhibition … in the δ-Glu Assay” value in assay [1] worked out at 53.9%. The “Percent Inhibition in the G.K.-Ribose Assay” value with G.K. peptide amounted to 39.5%. On BSA, the “Percent Inhibition in the BSA-Glucose Assay” value was determined as 30.9%. Also, in assay [2], the “Inhibition of AGE-protein crosslinking (in words)” value is reported as “strong inhibitors of AGE-protein crosslinking” and the “Effectiveness relative to pyridoxamine, inhibition of AGE-protein-crosslinking” value is 2 to 3 times.

`CC(C)(Oc1ccc(NC(=O)Nc2cc(Cl)cc(Cl)c2)cc1)C(=O)NC1(C(=O)O)CCCC1` [LR100]: the “Percent Inhibition … in the δ-Glu Assay” value in assay [1] was determined as 52.4%. Besides, the “Percent Inhibition in the G.K.-Ribose Assay” value in the assay with G.K. peptide turned out to be 28.5%. Besides, the “Percent Inhibition in the BSA-Glucose Assay” value at BSA turned out to be 31.9%.
